{"source": "patent US20040029953A1", "about": "“Use of neuropeptide-y antagonists in treatment of alcoholism” (priority 2000, published 2004)", "tested_on": "C57BL/6J mice", "assay": "Operant ethanol-reinforced lever pressing (CONC FR1 FR1, 16-h sessions) after systemic administration", "type": "in vivo, mouse", "conditions": "for alcohol-seeking behavior (lever presses for alcohol) during the peak period: 4th-5th hour of access, vs saline", "excerpt": "Another animal model suitable for testing the effectiveness of the NPY antagonist uses alcohol-reinforced lever pressing behavior as described in Olive et al. Eur. J. Neurosci. 2000 Vol 12, 4131-4140. This model is particularly useful for identifying NPY antagonists that prevent or delay alcohol seeking behavior or prevent or reduce the occurence of relapse drinking in recovering alcoholics.\nMale C57BL/6J mice (N=8) were housed in standard Plexiglas cages (n=4/cage) with food (Harlan, Indianapolis, Ind.) and water always available. Mice were 20 weeks of age (body weight, 28-35 g) and drug naïve at the start of all testing. During operant self-administration training, food pellets (15 g per overnight session) were placed into the operant chambers and water was available under a fixed ratio-1 (FR-1) schedule of reinforcement.\nTest sessions were conducted in 8 Plexiglas operant chambers (Med Associates, Lafayette, Ind.) measuring 15.9×14×12.7 cm with stainless steel grid floors. Each chamber was housed in a sound-attenuating cubicle equipped with a house fan that provided ventilation and helped mask external noise. The left and right wall of each operant chamber was equipped with one ultra-sensitive stainless steel response lever and a liquid delivery system. Liquid solutions (ethanol or water) were maintained in 60 ml syringes mounted on a programmable pump (PH-100, Med Associates), which delivered 0.01 ml per activation into a stainless steel cup located to the left of the associated response lever. Each chamber also contained a house light (illuminated between 16:00-18:00 hr and 06:00-08:00 hr), as well as a stimulus light located above each lever (activated each time the lever was pressed). The chambers were interfaced (Med Associates) to an IBM-compatible PC, which was programmed to record all lever presses and liquid deliveries.\nMice were trained to lever press using reinforcement (10% sucrose w/v) of successive approximations. After initial behavioral shaping sessions, mice were run during 16 hr overnight (16:00-08:00 hrs) training sessions. During these training sessions, both response levers were active on a concurrent fixed ratio one (CONC FR1 FR1) schedule with 10% sucrose vs. water presented as the reinforcer. The position of each solution (left or right) was fixed for each animal but counterbalanced between animals to control for side preference. After 4 days, mice were trained to orally self-administer ethanol (10% v/v) vs. water using a sucrose substitution procedure, which we have adapted for use in the mouse (Olive et al., 2000 Eur. J. Neurosci. 12:4131-4140). Briefly, ethanol (2, 4, 8, or 10% v/v) was incrementally added to the sucrose (10% w/v) solution with 4 days at each increasing concentration. Then, sucrose (10, 5, 2% w/v) was incrementally faded out of the ethanol containing solution with 4 days at each decreasing concentration. After sucrose substitution training, all mice reliably responded on the CONC FR1 FR1 schedule of reinforcement with ethanol (10% v/v) vs. water presented as the reinforcers.", "note": "“Also recorded” adds a separate entry of the source."}
{"smiles": "CC1(C)CC(=O)C(C2C3=C(CC(C)(C)CC3=O)Oc3ccccc32)C(=O)C1", "note": "(stereo not shown) [L 152,804, 2-(3,3-dimethyl-1-oxo-4H-1H-xanthen-9-yl)-5,5-dimethylcyclohexane-1,3-dione]", "values": [{"measurement": "self-administration during the 13th hour of access", "setting": "60 mg/kg", "value": "compensatory increase in self-administration"}, {"measurement": "alcohol-seeking behavior (lever presses for alcohol) during the peak period", "setting": "60 mg/kg", "value": "significantly decreased alcohol-seeking behavior"}, {"measurement": "alcohol-seeking behavior (lever presses for alcohol) during the peak period", "setting": "60 mg/kg, listed as LI 52,804", "value": "blocked this peak in alcohol-seeking behavior"}, {"measurement": "latency to the first response (delay to first alcohol lever press)", "setting": "dose-dependent, vs no injection and saline controls", "value": "significantly increased the latency to the first response; also recorded: dose dependently delayed the onset of responding"}, {"measurement": "response latency, statistical significance", "setting": "highest dose", "value": "did not achieve significance"}, {"measurement": "water intake during 16-h sessions", "setting": "systemic, 10, 30 and 60 mg/kg", "value": "no effect on water intake"}, {"measurement": "ethanol self-administration", "setting": "the two low doses (10, 30 mg/kg)", "value": "did not significantly alter ethanol self-administration"}]}
